# Measurements taken from patent US20180055812A1, “METHOD AND COMPOSITIONS FOR TREATMENT OF CANCER” (priority 2008, published 2018).
# Like-named read-outs stand apart in the source and are kept apart here.
# Assays:
# [1] = test system: H460 cells; assay type: cell-based
# [2] = test system: A549 cells; assay type: cell-based
# [3] = H460 cells, MTT, 5 days incubation
# [4] = A549 cells, MTT, 5 days incubation
SMILES,"IC75 [1, 3] [µM]","IC90 [1, 3] [µM]","IC50 ([1]; H460 non-small cell lung cancer cells, MTT, 5 days incubation) [µM]","IC75 [2, 4] [µM]","IC90 [2, 4] [µM]",IC50 [1] [µM],IC75 [1] [µM],IC90 [1] [µM],IC50 [2] [µM],IC75 [2] [µM],IC90 [2] [µM]
"N.N.[Cl][Pt][Cl] [Cisplatin, cis-diamminedichloroplatinum (II), reference compound]",1.7,2.5,1,2,4,–,–,–,–,–,–
"O=[As][O-].[Na+] [Sodium Meta Arsenite, sodium meta arsenite]",–,–,–,–,–,10,20,30,13,19,17
